According to patent US20080021026A1, “BENZOTHIOPHENE INHIBITORS OF RHO KINASE” (priority 2006, published 2008):

Biological target: T1, recombinant N-terminal GST-tagged human Rho kinase 2 (ROCK2, amino acids 1-552) (Homo sapiens, UniProt O75116)
T1 construct: ROCK2, amino acids 1-552; purchased Invitrogen Inc. PV3759
Assay: In vitro Rho kinase assay (luciferase-based ATP consumption), ROCK2
Assay type: biochemical
Details: recombinant GST-tagged human ROCK2, luciferase-based ATP consumption; read-out: ROCK2 IC50
Description: In Vitro Rho Kinase Assay
Rho kinase biochemical assays described below depend on firefly luciferase-based, indirect measurement of total ATP consumption by the kinase following incubation with substrate and ATP. 25 μl of Rho kinase assay buffer (20 mM Tris-HCL [pH 7.5], 1 mM MgCl2, 0.4 mM CaCl2, 0.15 mM EGTA, 0.1 mg/ml bovine serum albumin) containing 0.82 μg/ml of recombinant N-terminal GST-tagged human Rho kinase 1 (ROCK1, amino acids 1-535, Invitrogen Inc., cat. #PV-3691) or recombinant N-terminal GST-tagged human Rho kinase 2 (ROCK2, amino acids 1-552, Invitrogen Inc., cat #PV3759), 100 μg/ml S6 peptide substrate (related to amino acids 218-249 of the human 40S ribosomal protein S6, and suitable for ROCK1 or ROCK2, e.g. Upstate/Millipore Inc., cat #12-420), and 3 µM ATP are dispensed to wells of a 384 multi-well opaque plate. The plate is centrifuged for 30 seconds at approximately 200×g. 240 nl of test compound in DMSO is dispensed to each well by passive pin transfer. The lag phase of this in vitro kinase reaction permits addition of compounds soon after the reaction initiates. The reaction is allowed to incubate at 30° C. for 2 hours. The assay plates are sealed and maintained in a humidified environment. After 2 hours, 25 μl of easylite protein kinase assay reagent (Perkin-Elmer, Inc.) is dispensed. After an additional 10 minute incubation at room temperature (about 22° C.), luminescence activity is measured on a Molecular Devices Analyst multi-mode plate reader or other suitable plate reader. Kinase inhibition results in less ATP consumption, and therefore increased luminescence signal. Negative control activity is measured with DMSO lacking any test compound. The positive control is 2-methyl-1-(4-methylisoquinolin-5-ylsulfonyl)perhydro-1,4-diazepine hydrochloride (aka H-1152P, HCl salt). Efficacy is measured as a percentage of positive control activity. […] In some cases, kinase reactions and compound testing are performed in 1536 multi-well plates under similar conditions, with assay volumes appropriately scaled. The designation NT means the cited example was not tested.

T1 sequence (O75116 1-552): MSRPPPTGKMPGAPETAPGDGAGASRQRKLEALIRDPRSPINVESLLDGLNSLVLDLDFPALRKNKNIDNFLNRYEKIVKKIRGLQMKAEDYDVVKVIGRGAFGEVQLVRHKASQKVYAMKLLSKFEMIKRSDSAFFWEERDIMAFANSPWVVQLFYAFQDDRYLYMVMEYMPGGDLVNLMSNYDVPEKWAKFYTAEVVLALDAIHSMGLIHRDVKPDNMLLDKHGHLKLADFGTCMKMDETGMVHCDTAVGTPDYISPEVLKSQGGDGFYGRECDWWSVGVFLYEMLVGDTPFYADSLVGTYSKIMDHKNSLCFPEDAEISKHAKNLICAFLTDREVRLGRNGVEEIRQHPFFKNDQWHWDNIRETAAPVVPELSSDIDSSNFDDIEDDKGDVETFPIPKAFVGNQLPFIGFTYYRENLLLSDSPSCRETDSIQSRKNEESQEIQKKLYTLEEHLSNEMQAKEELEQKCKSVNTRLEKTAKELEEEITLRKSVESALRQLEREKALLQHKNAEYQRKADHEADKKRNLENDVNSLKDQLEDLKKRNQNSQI

Row | SMILES | IC50 [µM]
1 | Cc1c(-c2ccnc(N)n2)sc2ccc(C(=O)NC(C)C)cc12 [Example 334, CC(C)NC(═O)c1ccc2sc(c(C)c2c1)-c3ccnc(N)n3] | > 5
2 | Cc1c(-c2ccnc(N)n2)sc2ccc(C(=O)NC(C)C(C)C)cc12 (stereo not drawn) [Example 349, CC(C)C(C)NC(═O)c1ccc2sc(c(C)c2c1)-c3ccnc(N)n3] | > 5
3 | COCC(C)NC(=O)c1ccc2sc(-c3ccnc(N)n3)c(C)c2c1 (stereo not drawn) [Example 352, COCC(C)NC(═O)c1ccc2sc(c(C)c2c1)-c3ccnc(N)n3] | > 5
4 | Cc1c(-c2ccnc(N)n2)sc2ccc(C(=O)NC3CCCCC3)cc12 [Example 356, Cc1c(sc2ccc(cc12)C(═O)NC3CCCCC3)-c4ccnc(N)n4] | > 5
5 | Cc1c(-c2ccnc(N)n2)sc2ccc(C(=O)NCC3CCCO3)cc12 (stereo not drawn) [Example 357, Cc1c(sc2ccc(cc12)C(═O)NCC3CCCO3)-c4ccnc(N)n4] | < 5
6 | Cc1c(-c2ccnc(N)n2)sc2ccc(C(=O)NCCC(C)(C)C)cc12 [Example 358, Cc1c(sc2ccc(cc12)C(═O)NCCC(C)(C)C)-c3ccnc(N)n3] | < 5
7 | Cc1c(-c2ccnc(N)n2)sc2ccc(C(=O)NC(C)CC(C)C)cc12 (stereo not drawn) [Example 359, CC(C)CC(C)NC(═O)c1ccc2sc(c(C)c2c1)-c3ccnc(N)n3] | > 5
8 | Cc1c(-c2ccnc(N)n2)sc2ccc(C(=O)NC3CONC3=O)cc12 (stereo not drawn) [Example 360, Cc1c(sc2ccc(cc12)C(═O)NC3CONC3═O)-c4ccnc(N)n4] | < 5
9 | Cc1c(-c2ccnc(N)n2)sc2ccc(C(=O)NN3CCOCC3)cc12 [Example 361, Cc1c(sc2ccc(cc12)C(═O)NN3CCOCC3)-c4ccnc(N)n4] | < 5
10 | Cc1c(-c2ccnc(N)n2)sc2ccc(C(=O)NC(CO)C(C)C)cc12 (stereo not drawn) [Example 362, CC(C)C(CO)NC(═O)c1ccc2sc(c(C)c2c1)-c3ccnc(N)n3] | < 5
11 | Cc1c(-c2ccnc(N)n2)sc2ccc(C(=O)NCc3ccccc3)cc12 [Example 363, Cc1c(sc2ccc(cc12)C(═O)NCc3ccccc3)-c4ccnc(N)n4] | < 5
12 | Cc1c(-c2ccnc(N)n2)sc2ccc(C(=O)NCc3cccnc3)cc12 [Example 364, Cc1c(sc2ccc(cc12)C(═O)NCc3cccnc3)-c4ccnc(N)n4] | < 5
13 | Cc1c(-c2ccnc(N)n2)sc2ccc(C(=O)NCc3ccccn3)cc12 [Example 365, Cc1c(sc2ccc(cc12)C(═O)NCc3ccccn3)-c4ccnc(N)n4] | < 5
14 | Cc1c(-c2ccnc(N)n2)sc2ccc(C(=O)NCc3ccncc3)cc12 [Example 366, Cc1c(sc2ccc(cc12)C(═O)NCc3ccncc3)-c4ccnc(N)n4] | < 5
15 | Cc1c(-c2ccnc(N)n2)sc2ccc(C(=O)NCc3cccs3)cc12 [Example 367, Cc1c(sc2ccc(cc12)C(═O)NCc3cccs3)-c4ccnc(N)n4] | < 5
16 | Cc1c(-c2ccnc(N)n2)sc2ccc(C(=O)NC3CCC(C)CC3)cc12 (stereo not drawn) [Example 368, CC1CCC(CC1)NC(═O)c2ccc3sc(c(C)c3c2)-c4ccnc(N)n4] | > 5
17 | Cc1c(-c2ccnc(N)n2)sc2ccc(C(=O)NCC3CCCCC3)cc12 [Example 369, Cc1c(sc2ccc(cc12)C(═O)NCC3CCCCC3)-c4ccnc(N)n4] | < 5
18 | Cc1c(-c2ccnc(N)n2)sc2ccc(C(=O)NC3CCCCCC3)cc12 [Example 370, Cc1c(sc2ccc(cc12)C(═O)NC3CCCCCC3)-c4ccnc(N)n4] | > 5
19 | Cc1c(-c2ccnc(N)n2)sc2ccc(C(=O)NC3CCCCC3C)cc12 (stereo not drawn) [Example 371, CC1CCCCC1NC(═O)c2ccc3sc(c(C)c3c2)-c4ccnc(N)n4] | > 5
20 | Cc1c(-c2ccnc(N)n2)sc2ccc(C(=O)NCCN3CCCC3)cc12 [Example 372, Cc1c(sc2ccc(cc12)C(═O)NCCN3CCCC3)-c4ccnc(N)n4] | < 5
21 | Cc1c(-c2ccnc(N)n2)sc2ccc(C(=O)NN3CCN(C)CC3)cc12 [Example 373, CN1CCN(CC1)NC(═O)c2ccc3sc(c(C)c3c2)-c4ccnc(N)n4] | < 5
22 | CCN(CC)CCNC(=O)c1ccc2sc(-c3ccnc(N)n3)c(C)c2c1 [Example 374, CCN(CC)CCNC(═O)c1ccc2sc(c(C)c2c1)-c3ccnc(N)n3] | < 5

Next, values leading:

Row | IC50 [µM] | SMILES
23 | < 5 | Cc1c(-c2ccnc(N)n2)sc2ccc(Nc3cccc(O)c3)cc12 [Example 52, 3-(2-(2-Aminopyrimidin-4-yl)-3-methylbenzo[b]thiophen-5-ylamino)phenol]
24 | < 5 | Cc1c(-c2ccnc(N)n2)sc2ccc(Oc3cccc(O)c3)cc12 [Example 82, 3-(2-(2-Aminopyrimidin-4-yl)-3-methylbenzo[b]thiophen-5-yloxy)phenol]
25 | < 5 | CNC(=O)c1ccc2sc(-c3ccnc(N)n3)c(C)c2c1 [Example 329, CNC(═O)c1ccc2sc(c(C)c2c1)-c3ccnc(N)n3]
26 | < 5 | CCNC(=O)c1ccc2sc(-c3ccnc(N)n3)c(C)c2c1 [Example 330, CCNC(═O)c1ccc2sc(c(C)c2c1)-c3ccnc(N)n3]
27 | < 5 | C#CCNC(=O)c1ccc2sc(-c3ccnc(N)n3)c(C)c2c1 [Example 331, Cc1c(sc2ccc(cc12)C(═O)NCC#C)-c3ccnc(N)n3]
28 | < 5 | Cc1c(-c2ccnc(N)n2)sc2ccc(C(=O)NCC#N)cc12 [Example 332, Cc1c(sc2ccc(cc12)C(═O)NCC#N)-c3ccnc(N)n3]
29 | < 5 | Cc1c(-c2ccnc(N)n2)sc2ccc(C(=O)NC3CC3)cc12 [Example 333, Cc1c(sc2ccc(cc12)C(═O)NC3CC3)-c4ccnc(N)n4]
30 | < 5 | CCCNC(=O)c1ccc2sc(-c3ccnc(N)n3)c(C)c2c1 [Example 335, CCCNC(═O)c1ccc2sc(c(C)c2c1)-c3ccnc(N)n3]
31 | < 5 | Cc1c(-c2ccnc(N)n2)sc2ccc(C(=O)NCCN)cc12 [Example 336, Cc1c(sc2ccc(cc12)C(═O)NCCN)-c3ccnc(N)n3]
32 | < 5 | Cc1c(-c2ccnc(N)n2)sc2ccc(C(=O)NCCO)cc12 [Example 337, Cc1c(sc2ccc(cc12)C(═O)NCCO)-c3ccnc(N)n3]
33 | < 5 | Cc1c(-c2ccnc(N)n2)sc2ccc(C(=O)NCCC#N)cc12 [Example 338, Cc1c(sc2ccc(cc12)C(═O)NCCC#N)-c3ccnc(N)n3]
34 | < 5 | Cc1c(-c2ccnc(N)n2)sc2ccc(C(=O)NC3CCC3)cc12 [Example 339, Cc1c(sc2ccc(cc12)C(═O)NC3CCC3)-c4ccnc(N)n4]
35 | < 5 | Cc1c(-c2ccnc(N)n2)sc2ccc(C(=O)NCC3CC3)cc12 [Example 340, Cc1c(sc2ccc(cc12)C(═O)NCC3CC3)-c4ccnc(N)n4]
36 | < 5 | CCC(C)NC(=O)c1ccc2sc(-c3ccnc(N)n3)c(C)c2c1 (stereo not drawn) [Example 341, CCC(C)NC(═O)c1ccc2sc(c(C)c2c1)-c3ccnc(N)n3]
37 | < 5 | Cc1c(-c2ccnc(N)n2)sc2ccc(C(=O)NCC(C)C)cc12 [Example 342, CC(C)CNC(═O)c1ccc2sc(c(C)c2c1)-c3ccnc(N)n3]
38 | < 5 | Cc1c(-c2ccnc(N)n2)sc2ccc(C(=O)NCCCO)cc12 [Example 343, Cc1c(sc2ccc(cc12)C(═O)NCCCO)-c3ccnc(N)n3]
39 | < 5 | Cc1c(-c2ccnc(N)n2)sc2ccc(C(=O)NC(C)CO)cc12 (stereo not drawn) [Example 344, CC(CO)NC(═O)c1ccc2sc(c(C)c2c1)-c3ccnc(N)n3]
40 | < 5 | COCCNC(=O)c1ccc2sc(-c3ccnc(N)n3)c(C)c2c1 [Example 345, COCCNC(═O)c1ccc2sc(c(C)c2c1)-c3ccnc(N)n3]
41 | < 5 | Cc1c(-c2ccnc(N)n2)sc2ccc(C(=O)NC3CCCC3)cc12 [Example 346, Cc1c(sc2ccc(cc12)C(═O)NC3CCCC3)-c4ccnc(N)n4]
42 | < 5 | CCCC(C)NC(=O)c1ccc2sc(-c3ccnc(N)n3)c(C)c2c1 (stereo not drawn) [Example 347, CCCC(C)NC(═O)c1ccc2sc(c(C)c2c1)-c3ccnc(N)n3]
43 | < 5 | CCC(C)CNC(=O)c1ccc2sc(-c3ccnc(N)n3)c(C)c2c1 (stereo not drawn) [Example 348, CCC(C)CNC(═O)c1ccc2sc(c(C)c2c1)-c3ccnc(N)n3]
44 | < 5 | Cc1c(-c2ccnc(N)n2)sc2ccc(C(=O)NCCC(C)C)cc12 [Example 350, CC(C)CCNC(═O)c1ccc2sc(c(C)c2c1)-c3ccnc(N)n3]
45 | < 5 | Cc1c(-c2ccnc(N)n2)sc2ccc(C(=O)NCCN(C)C)cc12 [Example 351, CN(C)CCNC(═O)c1ccc2sc(c(C)c2c1)-c3ccnc(N)n3]
46 | < 5 | CCC(CO)NC(=O)c1ccc2sc(-c3ccnc(N)n3)c(C)c2c1 (stereo not drawn) [Example 353, CCC(CO)NC(═O)c1ccc2sc(c(C)c2c1)-c3ccnc(N)n3]
47 | < 5 | Cc1c(-c2ccnc(N)n2)sc2ccc(C(=O)NCCCCO)cc12 [Example 354, Cc1c(sc2ccc(cc12)C(═O)NCCCCO)-c3ccnc(N)n3]
48 | < 5 | Cc1c(-c2ccnc(N)n2)sc2ccc(C(=O)NCc3ccco3)cc12 [Example 355, Cc1c(sc2ccc(cc12)C(═O)NCc3ccco3)-c4ccnc(N)n4]
